Reference: patent US9999690B2, “Labeled compounds and methods of imaging, diagnosing cartilage disorders and diseases, and monitoring cartilage health using labeled and unlabeled compounds” (Perosphere Inc., priority 2013, dated 2018)
Values joined by “and” are separate entries in the source; they are usually repeats but may differ in a detail not shown here. Equal values may be shown once.

Tests used:
[1] = In vivo toxicity study, rats; settings: rat, read-out: Maximum tolerated dose
Procedure: (§1) A study was conducted to test the toxicity of labeled formula XIII in rats and dogs. Maximum tolerated doses were 40 mg/kg for rats and 35 mg/kg for dogs.

[2] = Rat blood PK and blood to serum ratio, Group 4; format: in vivo
Procedure: (§2) A study was conducted to determine the pharmacokinetics, rates and routes of excretion with mass baseline and tissue distribution of radioactivity, after a single intravenous dose administration of formula XIII (also referred to as [^14C]DAP) was administered to the rats by tail vein intravenous injection at a
(§3) The study was conducted on 19 male rats divided into 4 groups. The first group of 6 rats was used for blood collection (Group 1); the second group of 4 rats was used for urine, feces, cage rinses and wipes and carcasses collection (Group 2); the third group of 4 rats was used for expired air collection (Group 3); the fourth group of 5 rats was used for terminal blood/serum and tissue distribution by Quantitative Whole-Body Autoradiography (QWBA) (Group 4).
For Group 4, formula XIII (QWBA was run at 1, 8, 12, 24 and 72 hours post dose. After terminal blood collection, each euthanized animal was frozen in a hexane/dry ice bath and embedded in a 2% carboxymethylcellulose matrix according to MPI Research SOP ADME-112. The embedded carcasses were sectioned according to MPI Research SOP ADME-113 on a Leica CM3600 Cyromacrotome set to maintain −10 to −30° C. At least four fortified quality control standards of known radioactive concentration were placed into the frozen block prior to sectioning and used for section thickness quality control. The quality control standards were sectioned under the same conditions as the specimen. The intrasection and intersection variation of collected sections were determined by analyzing the quality control standards. Section variation must be less than 20% for quantitative analysis. Sections that were approximately 40μm thick were taken in the sagittal plane. Appropriate sections selected at various levels of interest in the block were collected to encompass the following tissues, organs, and biological fluids, where possible: adrenal gland, bladder (urinary) and contents (urine), blood (cardiac), bone, bone marrow, brain, eye, fat (brown), fat (white), heart, kidney, large intestine/cecum and contents, liver, lung, muscle, pancreas, prostate, salivary glands, skin, small intestine and contents, spleen, stomach and contents, testes, thymus, thyroid, mesenteric lymph nodes, and epididymis. A set of sections were mounted, exposed to phosphor imaging screens and scanned using the Storm 860 image acquisition system according to MPI Research SOP ADME-112. Quantification, relative to the calibration standards, were performed by image densitometry using MCID™ image analysis software according to MPI Research SOP ADME-114. A standard curve was constructed from the integrated response (MDC/mm2) and the nominal concentrations of the [^14C]Glucose calibration standards. Relative error should be less than 0.5 for each point on the curve. The concentrations of radioactivity were expressed as μCi/g and were converted to μg or ng-equivalents of DAP per gram of sample (μg- or ng-eq/g) using the specific activity of administered [^14C]DAP dose formulation. A lower limit of quantification (LLOQ) was applied to the data. The LLOQ was determined using the radioactive concentration of the lowest calibration standard used to generate a calibration curve divided by the specific activity of the dose formulation (μCi/ug). Artifacts, such as those produced by dislodged contents of the alimentary canal, were excluded from analysis during image analysis.

[3] = Rat mass balance recovery (urine, feces, cage rinses and wipes, carcasses, expired air), Groups 2 and 3; format: in vivo; parameters: Mass Balance Recovery, Feces Subtotal / Mass Balance Recovery, Expired Air, Trap 1 / Mass Balance Recovery, Expired Air, Trap 1 Subtotal: unit not given here; settings: for Mass Balance Recovery, Feces / Mass Balance Recovery, Cage Rinse / Mass Balance Recovery, Dose Site Wipe / Mass Balance Recovery, Urine / Mass Balance Recovery, Cage Wipe / Mass Balance Recovery, Carcass / Mass Balance Recovery, Feces Subtotal / Mass Balance Recovery, Cage Rinse Subtotal / Mass Balance Recovery, Urine Subtotal: rat Group 2, IV dose; for Mass Balance Recovery, Dose Site Wipe: 0 hrs; for Mass Balance Recovery, Cage Wipe / Mass Balance Recovery, Carcass: 96 hrs; for Mass Balance Recovery, Expired Air, Trap 1 / Mass Balance Recovery, Expired Air, Trap 1 Subtotal: rat Group 3, IV dose; for Mass Balance Recovery, TOTAL: rat Groups 2 and 3, IV dose
Procedure: as §2, §3

[4] = In vivo toxicity study, dogs; settings: dog, read-out: Maximum tolerated dose
Procedure: as §1

[5] = In vivo safety study in humans; settings: intravenous bolus doses up to 200 mg
Procedure: A study was conducted to test the safety profile of labeled formula XIII in humans in intravenous bolus doses up to 200 mg.

[6] = 24-48 hrs, Mean, in % (unit assumed)
[7] = 24-48 hrs, individual rats 201M-204M, in % (unit assumed)
[8] = 48-72 hrs, Mean, in % (unit assumed)
[9] = 48-72 hrs, individual rats 201M-204M, in % (unit assumed)
[10] = 72-96 hrs, Mean, in % (unit assumed)
[11] = 72-96 hrs, individual rats 201M-204M, in % (unit assumed)
[12] = individual rats 201M-204M, in % (unit assumed)

With `[2H]C1([2H])N(CCCNC(=O)[C@@H](N)CCCNC(=N)N)C([2H])([2H])C([2H])([2H])N(CCCNC(=O)[C@@H](N)CCCNC(=N)N)C1([2H])[2H]` [formula XIII] the MTD [1] was 40 mg/kg, the “Blood:Serum Ratio” value ([2]; rat Group 4, 1 hrs, rat 401M) was 0.44 and the “Blood:Serum Ratio” value ([2]; rat Group 4, 8 hrs, rat 402M) was 1.32. For the same compound, the “Blood:Serum Ratio” value ([2]; rat Group 4, 12 hrs, rat 403M) was 1.84, the “Blood:Serum Ratio” value ([2]; rat Group 4, 24 hrs, rat 404M) was 2.27 and the “Blood:Serum Ratio” value ([2]; rat Group 4, 72 hrs, rat 405M) was 2.53. The “Mass Balance Recovery, Feces” value ([3]; 0-8 hrs, Mean, in % (unit assumed)) was 0.02, the “Mass Balance Recovery, Feces” value ([3]; 0-8 hrs, individual rats 201M-204M) was 0.00 and 0.04 (2×) and 0.01 and the “Mass Balance Recovery, Cage Rinse” value ([3]; 0-24 hrs, Mean, in % (unit assumed)) was 1.74. The “Mass Balance Recovery, Cage Rinse” value ([3]; 0-24 hrs, individual rats 201M-204M, in % (unit assumed)) was 2.48 and 0.91 and 1.94 and 1.63, the Mass Balance Recovery, Dose Site Wipe ([3]; Mean) was 0.01% and the Mass Balance Recovery, Dose Site Wipe ([3]; individual rats 201M-204M) was 0.01% (3×) and 0%. The “Mass Balance Recovery, Feces” value ([3]; 8-24 hrs, Mean, in % (unit assumed)) was 1.82, the “Mass Balance Recovery, Feces” value ([3]; 8-24 hrs, individual rats 201M-204M, in % (unit assumed)) was 1.34 and 2.04 and 2.40 and 1.49 and the “Mass Balance Recovery, Cage Rinse” value [3, 6] was 0.32. The “Mass Balance Recovery, Feces” value [3, 6] was 0.93, the “Mass Balance Recovery, Urine” value [3, 6] was 3.71 and the “Mass Balance Recovery, Feces” value ([3]; 24-48 hrs, individual rats 201M-204M) was 1.18 and 0.70 (2×) and 1.15. For the same compound, the “Mass Balance Recovery, Cage Rinse” value [3, 7] was 0.37 and 0.21 and 0.38 and 0.30, the “Mass Balance Recovery, Urine” value [3, 7] was 3.83 and 3.59 and 4.50 and 2.92 and the “Mass Balance Recovery, Cage Rinse” value [3, 8] was 0.18. For the same compound, the “Mass Balance Recovery, Feces” value [3, 8] was 0.42, the “Mass Balance Recovery, Urine” value [3, 8] was 1.58 and the Mass Balance Recovery, Urine ([3]; 48-72 hrs, individual rats 201M-204M) was 1.61% (2×) and 1.73% and 1.36%. The “Mass Balance Recovery, Cage Rinse” value [3, 9] was 0.13 and 0.11 and 0.20 and 0.28, the “Mass Balance Recovery, Feces” value [3, 9] was 0.46 and 0.41 and 0.54 and 0.26 and the “Mass Balance Recovery, Cage Rinse” value [3, 10] was 0.16. The “Mass Balance Recovery, Feces” value [3, 10] was 0.25, the “Mass Balance Recovery, Urine” value [3, 10] was 0.94 and the “Mass Balance Recovery, Cage Rinse” value [3, 11] was 0.12 and 0.11 and 0.24 and 0.15. The “Mass Balance Recovery, Feces” value [3, 11] was 0.31 and 0.26 and 0.27 and 0.15, the “Mass Balance Recovery, Urine” value [3, 11] was 0.97 and 1.03 and 0.96 and 0.79 and the “Mass Balance Recovery, Cage Wipe” value ([3]; Mean, in % (unit assumed)) was 0.10. The “Mass Balance Recovery, Carcass” value ([3]; Mean, in % (unit assumed)) was 2.71, the “Mass Balance Recovery, Cage Wipe” value [3, 12] was 0.08 and 0.06 and 0.20 and 0.04 and the “Mass Balance Recovery, Carcass” value [3, 12] was 2.74 and 2.80 and 2.60 and 2.68. The “Mass Balance Recovery, Feces Subtotal” value ([3]; Mean) was 3.44, the “Mass Balance Recovery, Cage Rinse Subtotal” value ([3]; Mean, in % (unit assumed)) was 2.39 and the “Mass Balance Recovery, Urine Subtotal” value ([3]; Mean, in % (unit assumed)) was 89.51. For the same compound, the “Mass Balance Recovery, Feces Subtotal” value ([3]; individual rats 201M-204M) was 3.29 and 3.45 and 4.37 and 2.64, the “Mass Balance Recovery, Cage Rinse Subtotal” value [3, 12] was 3.10 and 1.34 and 2.76 and 2.36 and the “Mass Balance Recovery, Urine Subtotal” value [3, 12] was 89.44 and 90.60 and 87.85 and 90.14. For the same compound, the “Mass Balance Recovery, Expired Air, Trap 1” value ([3]; 0-24 hrs, Mean) was 0.03, the “Mass Balance Recovery, Expired Air, Trap 1” value ([3]; 0-24 hrs, individual rats 301M-304M) was 0.03 (3×) and 0.02 and the “Mass Balance Recovery, Expired Air, Trap 1” value ([3]; 24-48 hrs, Mean) was 0.00. The “Mass Balance Recovery, Expired Air, Trap 1” value ([3]; 24-48 hrs, individual rats 301M-304M) was 0.00, the “Mass Balance Recovery, Expired Air, Trap 1” value ([3]; 48-72 hrs, Mean) was 0.01 and the “Mass Balance Recovery, Expired Air, Trap 1” value ([3]; 48-72 hrs, individual rats 301M-304M) was 0.00 (3×) and 0.05. The “Mass Balance Recovery, Expired Air, Trap 1 Subtotal” value ([3]; Mean) was 0.04, the “Mass Balance Recovery, Expired Air, Trap 1 Subtotal” value ([3]; individual rats 301M-304M) was 0.03 (2×) and 0.02 and 0.08 and the “Mass Balance Recovery, TOTAL” value ([3]; (201M/301M to 204M/304M), in % (unit assumed)) was 98.72 and 98.32 and 97.83 and 97.98. The “Mass Balance Recovery, TOTAL” value ([3]; Mean, in % (unit assumed)) was 98.21, the “time after administration by which the vast majority is excreted (urinary excretion kinetics)” value ([3]; rat, single IV dose, FIG. 6) was under 24 h and the total recovery ([3]; rat, single intravenous administration, Groups 2 and 3, FIG. 8) was 98.21±0.4%. The MTD [4] was 35 mg/kg and the safety profile [5] was “excellent safety profile”.
